Where “and” joins values, the source holds several entries; their conditions need not be identical. Identical values can stand only once.
Test system: patients with hypercholesterolemia at moderate cardiovascular (CV) risk
Experiment: Example 2: Phase 3 monotherapy trial mAb316P versus ezetimibe, lipid parameters
Type: in vivo, human
Settings: for Lp(a) adjusted mean (SE) % change from baseline to week 24 / TGs adjusted mean (SE) % change from baseline to week 24: combined estimate; for LS mean (SE) percent reductions in LDL-C from baseline to week 24 / LS mean (SE) LDL-C reductions from baseline to week 24: given as reduction; for LDL-C LS mean (SE) change from baseline (%): baseline to Week 24; for estimated proportions of patients with LDL-C reductions ≧50% at week 12 / proportions of patients with LDL-C reductions ≧50% at week 12: before up-titration; for reduction in Lp(a): current study, discussion; for reduction in LDL-C at 12 weeks: summary, mAb316P 75mg Q2W arm, monotherapy population; for time-course of LDL-C lowering: week 4 to week 24, on-treatment; for between-group LS mean (SE) difference in LDL-C: week 12
Text: Randomization was stratified according to DM status. […] Patients were followed for 8 weeks after the last visit of the Double Blind Treatment Period (DBTP).
Double-blind treatment period (DBTP)—A randomized, double-blind double dummy study treatment period of 24 weeks. The first injection during the double-blind period was done at the site on the day of randomization (Week 0 [D1]-V3) and as soon as possible after the call to IVRS/IWRS for randomization into the study. The subsequent injections were done by the patient (self-injection) or another designated person (such as spouse, relative, etc.) at a patient-preferred location (home, etc.).
The primary efficacy endpoint was the percent change in calculated LDL-C from baseline to week 24, which is defined as: 100×(calculated LDL-C value at Week 24−calculated LDL-C value at baseline)/calculated LDL-C value at baseline.
Total-C, HDL-C, TG, Apo B, Apo A-1, and Lp (a) were directly measured. LDL-C was calculated using the Friedewald formula at all visits (except Week −1 and Follow Up visit). If TG values exceeded 400 mg/dL (4.52 mmol/L) then the central lab reflexively measured (via the beta quantification method) the LDL-C rather than calculating it. Non-HDL-C was calculated by subtracting HDL-C from the total-C. Ratio Apo B/Apo A-1 was calculated.
The primary endpoint was assessed in the intent-to-treat (ITT) population, which included all randomized patients who had at least 1 calculated LDL-C value at baseline and at one of the planned time points from weeks 4 to 24.
Missing data were accounted for by means of a mixed effect model with repeated measures (MMRM) approach (Siddiqui et al., MMRM vs. LOCF: a comprehensive comparison based on simulation study and 25 NDA datasets”, J Biopharm Stat, vol. 19, pp. 227-246 (2009); National Research Council, “The Prevention and Treatment of Missing Data in Clinical Trials” Panel on Handling Missing Data in Clinical Trials. Committee on National Statistics, Division of Behavioral and Social Sciences and Education. 2010. Washington, D.C.: The National Academies Press; Andersen et al., “On the practical application of mixed effects models for repeated measures to clinical trial data”, Pharm Stat., vol. 12, pp. 7-16 (2013)). For the ITT analysis, all available measurements at planned time points from weeks 4 to 24 (meaning week 4, 8, 12, 16, and 24), whatever their status on or off-treatment, were used in the MMRM. One MMRM model was used for LDL-C to provide least-squares means estimates and comparison between treatment arms at weeks 24 and 12. Further details on the model are given below. For the on-treatment analysis, all available on-treatment measurements (i.e. up to 21 days after last injection/3 days after last capsule, whichever comes first) at planned time points from weeks 4 to 24 were used in the MMRM model. In the same way as for the ITT analysis, one model was used to provide estimates and comparison at week 24 and week 12 for the on-treatment analysis. Continuous key secondary endpoints other than Lp(a) and triglycerides were analyzed in a similar fashion as the primary endpoint and description of the statistical methodology for secondary endpoints and subgroup analysis is provided below.
Outputs from the model were the baseline-adjusted least-squares (LS) mean estimates at week 24 for both treatment groups with their corresponding standard error (SE). Appropriate contrast statement was used to test the difference between these estimates at the 2-sided 5% alpha level.
To analyze the key secondary endpoints, a hierarchical procedure was used to control type I error and handle multiplicity. Secondary efficacy endpoints were tested sequentially using the order given above, in the intent-to-treat population.

[1] = ITT, excluding post up-titration data from patients up-titrated having LDL-C <100 mg/dL
[2] = ITT, mAb316P 75 mg Q2W before up-titration, ezetimibe 10 mg daily
[3] = on-treatment analysis, mAb316P 75 mg Q2W

“mAb316P: human anti-PCSK9 antibody; heavy chain SEQ ID NO:5, light chain SEQ ID NO:9; HCVR SEQ ID NO:1, LCVR SEQ ID NO:6” was tested, and the “Apo A-1 LS mean (SE) % change from baseline to week 24” value (from here on “Apo A-1 LS mean (SE) % change”) (ITT) was 4.7 (1.6) %, the “Apo B LS mean (SE) % change from baseline to week 24” value (from here on “Apo B LS mean (SE) % change”) (ITT) was −36.7 (2.3) % and the “HDL-C LS mean (SE) % change from baseline to week 24” value (ITT) was 6.0 (1.9) %. For the same compound, the “Non-HDL-C LS mean (SE) % change from baseline to week 24” value (“Non-HDL-C LS mean (SE) % change” below) (ITT) was −40.6 (2.8) %, the “Total cholesterol LS mean (SE) % change from baseline to week 24” value (shortened to “Total cholesterol LS mean (SE) % change”) (ITT) was −29.6 (2.1) % and the “Lp(a) adjusted mean (SE) % change from baseline to week 24” value (“Lp(a) adjusted mean (SE) % change” for short) (ITT) was −16.7 (3.7) %. The “TGs adjusted mean (SE) % change from baseline to week 24” value (from here on “TGs adjusted mean (SE) % change”) (ITT) was −11.9 (4.2) %, the “LDL-C LS mean (SE) Week 24 change from baseline (%)” value [1] was −44.3% and the “LS mean (SE) percent reductions in LDL-C from baseline to week 24” value (ITT) was 47 (3) %. The “LDL-C reduction at week 12” value [2] was 48 (3) % and 48%, the “Apo A-1 LS mean (SE) % change” value (On-treatment) was 5.3 (1.6) % and the “Apo B LS mean (SE) % change” value (On-treatment) was −40.8 (1.9) %. For the same compound, the “HDL-C LS mean (SE) % change from baseline to week 24” value (On-treatment) was 8.0 (1.9) %, the “Non-HDL-C LS mean (SE) % change” value (On-treatment) was −47.1 (1.9) % and the “Total cholesterol LS mean (SE) % change” value (On-treatment) was −34.2 (1.6) %. For the same compound, the “Lp(a) adjusted mean (SE) % change” value (On-treatment) was −17.7 (4.1) %, the “TGs adjusted mean (SE) % change” value (On-treatment) was −14.7 (4.4) % and the “LDL-C (on treatment), mean (SD)” value (Week 4, non-uptitrated at Week 12 (n = 32)) was 59.8 (13.6) mg/dL. The “LDL-C (on treatment), mean (SD)” value (Week 4, uptitrated at Week 12 (n = 14)) was 83.5 (23.6) mg/dL, the “LDL-C (on treatment), mean (SD)” value (Week 12, non-uptitrated at Week 12 (n = 32)) was 58.8 (16.8) mg/dL and the “LDL-C (on treatment), mean (SD)” value (Week 12, uptitrated at Week 12 (n = 14)) was 78.3 (22.8) mg/dL. For the same compound, the “LDL-C LS mean difference (SE) % MAb316P versus ezetimibe” value (Week 24, ITT, excluding post up-titration data from patients up-titrated having LDL-C <100 mg/dL) was −28.7%, the “LDL-C LS mean difference (SE) % MAb316P versus ezetimibe” value (Week 24, ITT, listed as MAb316P) was −31.6% and the “LDL-C (on treatment), mean (SD)” value (Week 24, non-uptitrated, 75 mg Q2W (n = 32)) was 57.8 (16.2) mg/dL. For the same compound, the “LDL-C (on treatment), mean (SD)” value (Week 24, uptitrated to 150 mg Q2W at Week 12 (n = 14)) was 74.8 (19.5) mg/dL, the “LDL-C LS mean (SE) change from baseline (%)” value (ITT) was −47.2% and the “LDL-C LS mean (SE) change from baseline (%)” value (On-treatment) was −54.1%. The “estimated proportions of patients with LDL-C reductions ≧50% at week 12” value (ITT) was 58%, the “proportions of patients with LDL-C reductions ≧50% at week 12” value (on-treatment analysis) was 65% and the “reduction in Lp(a)” value was 18%. The “patients who achieved LDL-C<70 mg/dL at Week 8” value (of the 46 mAb316P-treated patients in PK analyses, 75 mg Q2W) was 32 patients, the “LS mean (SE) LDL-C reductions from baseline to week 24” value (on-treatment analysis) was 54 (2) % and the “LDL-C reduction at week 12” value [3] was 53 (2) % and 53%. For the same compound, the “reduction in LDL-C at 12 weeks” value was about 50%, the “time-course of LDL-C lowering” value was “robust LDL-C reductions maintained from week 4 to end of the treatment period at week 24” and the “time-course of LDL-C lowering” value (listed as MAb316P) was “sustained LDL-lowering effect from weeks 4 to 24”. The “between-group LS mean (SE) difference in LDL-C” value (ITT) was −28 (4) %, the “between-group LS mean (SE) difference in LDL-C” value (on-treatment analysis) was −33 (3) % and the “Apo A-1 LS mean difference (SE) % MAb316P versus ezetimibe” value (week 24, ITT) was 5.3 (2.2) %. The “Apo B LS mean difference (SE) % MAb316P versus ezetimibe” value (week 24, ITT) was −25.8 (3.3) %, the “HDL-C LS mean difference (SE) % MAb316P versus ezetimibe” value (week 24, ITT) was 4.4 (2.7) % and the “LDL-C LS mean difference (SE) % MAb316P versus ezetimibe” value (week 24, ITT) was −32 (4) %. For the same compound, the “Lp(a) mean difference (SE) % MAb316P versus ezetimibe” value (week 24, ITT) was −4.4 (5.3) %, the “Non-HDL-C LS mean difference (SE) % MAb316P versus ezetimibe” value (week 24, ITT) was −25.5 (4.1) % and the “TGs mean difference (SE) % MAb316P versus ezetimibe” value (week 24, ITT) was −1.2 (5.9) %. For the same compound, the “Total cholesterol LS mean difference (SE) % MAb316P versus ezetimibe” value (week 24, ITT) was −18.7 (3.0) %, the “Apo A-1 LS mean difference (SE) % MAb316P versus ezetimibe” value (week 24, On-treatment) was 6.1 (2.3) % and the “Apo B LS mean difference (SE) % MAb316P versus ezetimibe” value (week 24, On-treatment) was −29.2 (2.6) %. The “HDL-C LS mean difference (SE) % MAb316P versus ezetimibe” value (week 24, On-treatment) was 6.2 (2.7) %, the “LDL-C LS mean difference (SE) % MAb316P versus ezetimibe” value (week 24, On-treatment) was −36.9% and the “Lp(a) mean difference (SE) % MAb316P versus ezetimibe” value (week 24, On-treatment) was −5.4 (5.7) %. For the same compound, the “Non-HDL-C LS mean difference (SE) % MAb316P versus ezetimibe” value (week 24, On-treatment) was −30.5 (2.7) %, the “TGs mean difference (SE) % MAb316P versus ezetimibe” value (week 24, On-treatment) was −1.9 (6.0) % and the “Total cholesterol LS mean difference (SE) % MAb316P versus ezetimibe” value (week 24, On-treatment) was −22.2 (2.3) %.

For `O=C1[C@H](CC[C@H](O)c2ccc(F)cc2)[C@@H](c2ccc(O)cc2)N1c1ccc(F)cc1` [ezetimibe, reference compound], the “Apo A-1 LS mean (SE) % change” value (ITT) was −0.6 (1.6) %, the “Apo B LS mean (SE) % change” value (ITT) was −11.0 (2.4) % and the “HDL-C LS mean (SE) % change from baseline to week 24” value (ITT) was 1.6 (1.9) %. The “Non-HDL-C LS mean (SE) % change” value (ITT) was −15.1 (2.9) %, the “Total cholesterol LS mean (SE) % change” value (ITT) was −10.9 (2.2) % and the “Lp(a) adjusted mean (SE) % change” value (ITT) was −12.3 (3.8) %. For the same compound, the “TGs adjusted mean (SE) % change” value (ITT) was −10.8 (4.3) %, the “LDL-C LS mean (SE) Week 24 change from baseline (%)” value [1] was −15.6% and the “LS mean (SE) percent reductions in LDL-C from baseline to week 24” value (ITT) was 16 (3) %. The “LDL-C reduction at week 12” value [2] was 20 (3) % and 20%, the “Apo A-1 LS mean (SE) % change” value (On-treatment) was −0.7 (1.6) % and the “Apo B LS mean (SE) % change” value (On-treatment) was −11.5 (1.9) %. For the same compound, the “HDL-C LS mean (SE) % change from baseline to week 24” value (On-treatment) was 1.7 (1.9) %, the “Non-HDL-C LS mean (SE) % change” value (On-treatment) was −16.6 (1.9) % and the “Total cholesterol LS mean (SE) % change” value (On-treatment) was −12.0 (1.6) %. The “Lp(a) adjusted mean (SE) % change” value (On-treatment) was −12.3 (4.0) %, the “TGs adjusted mean (SE) % change” value (On-treatment) was −12.7 (4.2) % and the “LDL-C (on treatment), mean (SD)” value (Week 4, ezetimibe arm (n = 51)) was 109.9 (22.4) mg/dL. For the same compound, the “LDL-C (on treatment), mean (SD)” value (Week 12, ezetimibe arm (n = 51)) was 109.8 (25.2) mg/dL, the “LDL-C (on treatment), mean (SD)” value (Week 24, ezetimibe arm (n = 51)) was 113.4 (25.0) mg/dL and the “LDL-C LS mean (SE) change from baseline (%)” value (ITT) was −15.6%. For the same compound, the “LDL-C LS mean (SE) change from baseline (%)” value (On-treatment) was −17.2%, the “estimated proportions of patients with LDL-C reductions ≧50% at week 12” value (ITT) was 3% and the “proportions of patients with LDL-C reductions ≧50% at week 12” value (on-treatment analysis) was 2%. The “reduction in Lp(a)” value was 12%, the “LS mean (SE) LDL-C reductions from baseline to week 24” value (on-treatment analysis) was 17 (2) % and the “LDL-C reduction at week 12” value [3] was 20 (2) % and 20%. The “reduction in LDL-C at 12 weeks” value was 20%.
